As a reminder, the pEC50 is the negative decadic logarithm of the EC50, by convention in mol/L. Low readings indicate a large EC50, high ones a small EC50. What is called pIC50 is the IC50 on a negative log10 scale, so that one unit is a factor of ten. As usually defined, the Papp is a coefficient for how fast a substance crosses the barrier. A low value points to slow passage.

Each structure is given as a SMILES string. pEC50, pIC50: −log10 of the molar value.

The subject of data set [1] is IL-6 levels in human whole blood stimulated with a TLR2 agonist. Description: IRAK4 Whole Blood Assay (TLR2 agonist lipoteichoic acid-stimulated IL-6). The class given is cell-based. The settings on record: 10 μg/mL lipoteichoic acid, 5 hours, IL-6 readout. How it is done:
Human whole blood containing the anti-coagulant ACD-A was plated in 384-well plate (25 μL/well) and incubated with compounds for 60 minutes at 37° C. in a 5% CO2 incubator. The blood was stimulated with a TLR2 agonist, 10 μg/mL final concentration of lipoteichoic acid (Invivogen, San Diego, Calif.) in 25 μL RPMI (Gibco) for 5 hours in a 5% CO2 incubator. At the end of the incubation, plates were centrifuged at 2300 rpm for 5 minutes. Supernatants were harvested and analyzed for IL-6 levels by Flow Cytometry beads assay (BD Biosciences, San Jose, Calif.).

In a further data set the target is IRAK4 (Homo sapiens (Human), UniProt Q9NWZ3). Put plainly: IRAK4 Inhibition Assay. Type of data set: biochemical. Conditions: ATP 500 μM; IRAK4 0.6 nM; 60 min at room temperature. How it is done:
The assays were performed in U-bottom 384-well plates. The final assay volume was 30 μL prepared from 15 μL additions of enzyme and substrates (fluoresceinated peptide and ATP) and test compounds in assay buffer (20 mM HEPES pH 7.2, 10 mM MgCl2, 0.015% Brij 35 and 4 mM DTT). The reaction was initiated by the combination of IRAK4 with substrates and test compounds. The reaction mixture was incubated at room temperature for 60 min. and terminated by adding 45 μL of 35 mM EDTA to each sample. The reaction mixture was analyzed on the Caliper LABCHIP® 3000 (Caliper, Hopkinton, Mass.) by electrophoretic separation of the fluorescent substrate and phosphorylated product. Inhibition data were calculated by comparison to no enzyme control reactions for 100% inhibition and vehicle-only reactions for 0% inhibition. The final concentrations of reagents in the assays are ATP, 500 μM; FL-IPTSPITTTYFFFKKK peptide 1.5 μM; IRAK4, 0.6 nM; and DMSO, 1.6%.

The nature of data set [2]: Caco-2 Permeability Assay. Type of data set: in vitro ADME. The settings on record: human, 3 μM compound, 2 hours at 37° C., direction not given. The procedure:
Caco-2 Permeability Assay
Thirteen to 27 days prior to assay, Caco-2 cells were seeded onto collagen-coated polycarbonate filter membranes in 24-well transwell plates at a density of 1.45×10^5 cells/cm^2, approximately 4.8×10^4 cells per well. The cells were grown in a culture medium consisting of DMEM supplemented with 10% fetal bovine serum, 10 mM HEPES, 1% nonessential amino acids, 2 mM L-glutamine, 100 U/mL penicillin-G, and 100 μg/mL streptomycin. The culture medium was replaced every 3 days and the cells were maintained at 37° C. in a 95% relative humidity and 5% CO2 atmosphere. The cells were evaluated for tight junction formation just prior to assay. The test compound was solubilized to 10 mM in 100% DMSO and diluted to 3 μM in assay buffer. Permeability studies were initiated by adding 200 μL assay buffer plus/minus compound to the apical transwell compartment and 600 μL assay buffer plus/minus compound to the basolateral compartment of the 24-well transwell low-binding cluster plate. For apical-to-basolateral (A to B) permeability (absorptive direction), buffer containing compound was placed in the apical compartment (donorwells), while buffer alone was placed in the corresponding basolateral compartments (receiverwells). For basolateral-to-apical (B to A) permeability (secretive direction), buffer containing compound was placed in the basolateral compartment (donor wells), while buffer alone was placed in the corresponding apical compartments (receiver wells). Transwells were then incubated for 2 hours at 37° C. in a 95% relative humidity and 5% CO2 atmosphere with gentle agitation. Following incubation, 100 μL was removed from each apical and basolateral compartment and transferred to 96-well low binding plates that had been previously loaded with 100 μL/well of acetonitrile containing 250 nM propranolol, 250 nM diclofenac, and 500 nM tolbutamide as internal standards. The samples were subsequently analyzed by LC-MS/MS to determine concentrations of compound.
Background: Caco-2 cells form a polarised layer with tight junctions and transporters.

Sequence of IRAK4 (Q9NWZ3 whole entry): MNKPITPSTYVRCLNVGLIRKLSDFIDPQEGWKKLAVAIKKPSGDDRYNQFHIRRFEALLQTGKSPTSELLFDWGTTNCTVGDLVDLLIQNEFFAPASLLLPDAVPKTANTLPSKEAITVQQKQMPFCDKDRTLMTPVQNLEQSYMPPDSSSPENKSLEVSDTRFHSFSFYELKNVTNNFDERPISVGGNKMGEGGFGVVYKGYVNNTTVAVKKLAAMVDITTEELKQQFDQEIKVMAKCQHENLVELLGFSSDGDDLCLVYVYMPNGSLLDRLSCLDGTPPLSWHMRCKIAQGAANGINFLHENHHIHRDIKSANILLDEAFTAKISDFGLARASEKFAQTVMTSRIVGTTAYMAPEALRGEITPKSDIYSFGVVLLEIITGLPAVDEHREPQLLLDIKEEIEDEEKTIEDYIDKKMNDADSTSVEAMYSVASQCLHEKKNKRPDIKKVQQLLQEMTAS

As for `CC[C@@H]1[C@H](F)C(=O)N[C@@H]1COc1csc2cc(C(N)=O)c(OC)nc12` [Example 2, 3-(((2S,3S,4S)-3-Ethyl-4-fluoro-5-oxopyrrolidin-2-yl)methoxy)-5-methoxythieno[3,2-b]pyridine-6-carboxamide], the pEC50 in data set [1] is 6.69. In addition, the pIC50 at IRAK4 was 8.92. In data set [2], this compound gave an apparent permeability coefficient (Papp) at 2 h, 3 µM of 7.3 ×10⁻⁶ cm/s.
As for `CC[C@@H]1CC(=O)N[C@@H]1COc1c(C)sc2cc(C(N)=O)c(OC)nc12` [Example 19, 3-(((2S,3R)-3-ethyl-5-oxopyrrolidin-2-yl)methoxy)-5-methoxy-2-methylthieno[3,2-b]pyridine-6-carboxamide], the pEC50 in data set [1] is 5.48. In addition, at IRAK4, the pIC50 was 7.97. Besides, the Papp at 2 h, 3 µM in data set [2] amounted to 22.5 ×10⁻⁶ cm/s.
In data set [1], `COc1nc2c(OC[C@H]3NC(=O)[C@@H](F)[C@H]3C)csc2cc1C(N)=O` [Example 28, 3-(((2S,3S,4S)-4-fluoro-3-methyl-5-oxopyrrolidin-2-yl)methoxy)-5-methoxythieno[3,2-b]pyridine-6-carboxamide] had a pEC50 of 6.13. Further, the pIC50 on IRAK4 was 7.88. This compound also displayed a Papp at 2 h, 3 µM in data set [2] of 5.8 ×10⁻⁶ cm/s.

The record behind these values is patent US10829496B2, “Thienopyridines and benzothiophenes useful as IRAK4 inhibitors” (BRISTOL-MYERS SQUIBB COMPANY, priority 2017, dated 2020).
